In patent publication US20260309717A1, “PROXIMITY INDUCING SYSTEM AND USES THEREOF” (SORBONNE UNIVERSITE, priority 2022, published 2026):

Assays:
[1] = molecular target: T1, NLS-mCherry-^FIREmate / NES-ECFP-^FIREtag (Halorhodospira halophila, UniProt P16113, A30V/C69G/D97P/F96I, form not given/G21E/G25R/K17N/M100R/M109L/Q41L/Q99S/S72T/T101G/V83A/Y94W/Y98T); experiment: Nuclear export of proteins (nucleocytoplasmic trafficking), confocal microscopy, HeLa cells; assay type: cell-based; conditions: 10 μM, 4 min
T1 construct: NLS-mCherry-FIREmate and NES-ECFP-FIREtag in HeLa cells
T1 sequence (P16113 1-114 A30V/C69G/D97P/F96I/G21E/G25R/K17N/M100R/M109L/Q41L/Q99S/S72T/T101G/V83A/Y94W/Y98T): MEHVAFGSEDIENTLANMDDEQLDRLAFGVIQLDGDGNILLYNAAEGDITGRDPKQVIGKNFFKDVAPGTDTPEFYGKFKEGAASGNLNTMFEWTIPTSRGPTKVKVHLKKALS
Procedure: FIGS. 13A-D illustrate the nuclear export of proteins mediated by the proximity inducing system described herein. FIG. 13A is a representation of the experimental design wherein HeLa cell co-expressing NLS-mCherry-FIR_^FIREmate and NES-ECFP-^FIREtag were treated with 10 μM of match (i.e., HBR-2,5DM) and imaged by time-lapse confocal microscopy. FIG. 13B is a graph showing the temporal evolution of the ratio nucleus-to-cytoplasm mCherry fluorescence intensities of n=5 cells from 2 independent experiments. FIG. 13C is a graph showing the temporal evolution of the FIRE signal detected upon addition of HBR-2,5DM at 0 min of n=5 cells from 2 independent experiments. […]
The confocal micrographs were acquired on a Zeiss LSM 980 Laser Scanning Microscope equipped with a plan apochromat 63x/1.4 NA oil immersion objective. […] The images were analyzed using Icy (2.4.0.0) and Fiji (Image J). In short, to track fluorescence signal in a specific organelle, a ROI (region of interest) was determined by masking the signal in the ECFP (Enhanced Cyan Fluorescent Protein) channel with the plug-in HK-means with the following parameters: intensity class equals 100, minimum object size (pixels or px) equals 500, maximum object size (px) equals 1500-3000. […]

[2] = tested on: mCherry-FKBP-^FIREtag / TOM20-^FIREmate / FRB-ECFP-Giantin; experiment: Orthogonality with FRB-FKBP-rapamycin CIP system, confocal microscopy, HeLa cells; assay type: cell-based; conditions: simultaneous addition of 10 μM HBR-2,5DM and 500 nM rapamycin
Procedure: FIG. 12A is a representation of the experimental design wherein HeLa cells co-expressing mCherry-FKBP-^FIREtag, TOM20-^FIREmate and FRB-ECFP-Giantin were treated with 10 μM of match (i.e., HBR-2,5DM) and 500 nM rapamycin, and imaged by time-lapse confocal microscopy. FIG. 12B is a set of representative confocal micrographs of cells before and after addition of HBR-2,5DM (match1) and rapamycin (rap) (mCherry: ex/em 561/606-675 nm; FIRE: ex/em 488/508-570 nm; ECFP: ex/em 445/455-499 nm). Scale bars are 20 μm.
The confocal micrographs were acquired on a Zeiss LSM 980 Laser Scanning Microscope equipped with a plan apochromat 63x/1.4 NA oil immersion objective. ZEN software was used to collect the data. The images were analyzed using Icy (2.4.0.0) and Fiji (Image J). In short, to track fluorescence signal in a specific organelle, a ROI (region of interest) was determined by masking the signal in the ECFP (Enhanced Cyan Fluorescent Protein) channel with the plug-in HK-means with the following parameters: intensity class equals 100, minimum object size (pixels or px) equals 500, maximum object size (px) equals 1500-3000. The signal intensity of the ROI was tracked over time for each channel by using plug-in Active Contours. The background signal was subtracted. Data were processed using GraphPad Prism v9.3.0. […]

In the case of Cc1cc(/C=C2\SC(=S)NC2=O)c(C)cc1O [HBR-2,5DM, (Z)-5-(4-hydroxy-2,5-dimethylbenzylidene)-2-thioxo-1,3-thiazolidin-4-one], the “FIRE signal in the cytoplasm” value [1] is reported as “strong cytoplasmic green fluorescence”, the “cytoplasmic localization of the formed protein complex (nuclear export of NLS-mCherry-^FIREmate)” value [1] is reported as “efficient cytoplasmic localization of the formed protein complex” and the “translocation of mCherry-FKBP-^FIREtag” value [2] is reported as “triggered the translocation of mCherry-FKBP-^FIREtag to the Golgi apparatus and to the mitochondria”.
